{"source": "patent US20250011778A1", "about": "“APP iRNA Compositions and Methods of Use Thereof for Treating or Preventing Diseases Characterized by Enlarged Endosomes” (ALNYLAM PHARMACEUTICALS, INC., priority 2021, published 2025)", "type_in_all_cases": "in vivo", "key": {"[1]": {"system": "glutamate (Glu) and N-acetylaspartate (NAA)", "assay": "CVN mouse study, metabolites by 1H-MRS", "conditions": "1H-MRS at 12 months of age (6 months post-dose)", "source_text": "(§1) Male and female CVN mice were bred at CRL Germany and genotyped, housed, dosed and analyzed (IHC, ^1H-MRS and open field test) at CRL Finland, as previously reported, under regular temperature, humidity and light/dark cycle conditions (Wilcock et al. J. Neurosci. 28: 1537-1545; Colton et al. J. Neuropathol. Exp. Neurol. 73: 752-769; Kohonen et al. Nat. Commun. 8: 15932). Homozygous Tg-hAPP^SwDI/mNos2^−/− (CVN) mice were produced by crossing mice expressing the vasculotropic Swedish K670N/M671L, Dutch E693Q and Iowa D694N human APP mutations under control of the Thy-1 promoter (Davis et al. J. Biol. Chem. 279: 20296-20306) with mNos2^−/− (B6 129PNos2 tau1Lau/J) mice (Laubach et al. Am. J. Physiol. 275: H2211-H2218). The study was divided into two phases. In the first phase, 15 CVN mice were dosed by ICV at 3 months of age, with terminal tissue sampling at 6 months of age and 9 months of age. In the second phase, 40 CVN mice and 20 WT mice were divided into three experimental groups, with terminal tissue sampling at 9 months of age and 12 months of age. […] Mice were placed in the center of the chamber, and their behaviors were recorded for 30 minutes. The following parameters were recorded and analyzed: distance traveled, number of vertical rearings and average velocity. […]"}, "[2]": {"system": "IBA1", "assay": "CVN mouse study, inflammation (IBA1 IHC and Iba1 qPCR)", "source_text": "as §1"}, "[3]": {"system": "AB40 deposits", "assay": "CVN mouse study, Aβ40 (AB40) deposits by IHC", "conditions": "6 months after dose, dosed pre-symptomatically, not significant (n=2-4)", "source_text": "as §1"}, "[4]": {"system": "CVN mice", "assay": "CVN mouse study, open field test", "conditions": "vs WT", "source_text": "as §1"}, "[5]": {"system": "sAPPα protein", "assay": "CVN mouse study, sAPPα protein after ICV dose", "conditions": "single 60 μg ICV, CSF", "source_text": "as §1"}, "[6]": {"system": "APP mRNA", "assay": "CVN mouse study, APP mRNA knockdown after ICV dose", "source_text": "Male and female CVN mice were bred at CRL Germany and genotyped, housed, dosed and analyzed (IHC, ^1H-MRS and open field test) at CRL Finland, as previously reported, under regular temperature, humidity and light/dark cycle conditions (Wilcock et al. J. Neurosci. 28: 1537-1545; Colton et al. J. Neuropathol. Exp. Neurol. 73: 752-769; Kohonen et al. Nat. Commun. 8: 15932). Homozygous Tg-hAPP^SwDI/mNos2^−/− (CVN) mice were produced by crossing mice expressing the vasculotropic Swedish K670N/M671L, Dutch E693Q and Iowa D694N human APP mutations under control of the Thy-1 promoter (Davis et al. J. Biol. Chem. 279: 20296-20306) with mNos2^−/− (B6 129PNos2 tau1Lau/J) mice (Laubach et al. Am. J. Physiol. 275: H2211-H2218). The study was divided into two phases. In the first phase, 15 CVN mice were dosed by ICV at 3 months of age, with terminal tissue sampling at 6 months of age and 9 months of age. In the second phase, 40 CVN mice and 20 WT mice were divided into three experimental groups, with terminal tissue sampling at 9 months of age and 12 months of age. Metabolic analyses using ^1H-MRS were at 12 months of age, respectively, as previously described (Colton et al. J. Neuropathol. Exp. Neurol. 73: 752-769). Open field test measurements were performed at approximately 9 months of age. Activity chambers (Med Associates, 27×27×20.3 cm) were equipped with infrared beams. Mice were placed in the center of the chamber, and their behaviors were recorded for 30 minutes. The following parameters were recorded and analyzed: distance traveled, number of vertical rearings and average velocity. IHC was performed as described (Wilcock et al. J. Neurosci. 28: 1537-1545; Kan et al. J Neurosci. 35: 5969-5982) using anti-amyloid-beta antibody WO2 (Sigma-Aldrich, MABN10, lot 3557956, 1:500) and anti-IBA1 antibody (Wako Pure Chemicals, 01-1941, lot LEP3218, 1:200). All data are presented as mean±standard deviation or standard error of the mean, and differences were statistically significant at the P<0.05 level. Statistical analyses were performed using the PRISM statistical program (GraphPad Software).\nICV administration was performed using stereotaxically guided Hamilton syringe and infusion system (Harvard Apparatus). A single 5-μl unilateral injection was performed in the right lateral ventricle at the following coordinates: AP=−0.5 mm (posterior from bregma), ML=+1.0 mm and DV=−1.75 mm, using standard aseptic surgical procedures. After midline skin incision on the scalp, a burr hole was generated at selected coordinates using stereotaxic coordinates and a dental drill. Thereafter, a small puncture in the dura was made at the epicenter of the burr hole, and the needle was lowered to specified depth to reach the lateral ventricle. A Hamilton syringe with a 28-gauge blunt needle was filled with a volume slightly greater than 5 μl. Administration volume of the test articles was at 5 μl and infusion rate at 1 μl min^−1 (over 5 minutes). After the infusion, the needle was left in place for a stabilization period of 5 minutes before withdrawal from the ventricle. Withdrawal was performed slowly and paused for 30 seconds when the needle tip was at the cortical area. […]"}}, "note": "“Also recorded” adds a separate entry of the source.", "data": [{"substance": "AD-454972: APP-targeting C16-siRNA; sense usasuga(Ahd)GfuUfCfAfucaucaaasasa, antisense VPusUfsuuug(Agn)ugaugaAfcUfucauasusc; SEQ 1435/1440 (sense UAUGAAGUUCAUCAUCAAAAA; antisense UUUUUGAUGAUGAACUUCAUAUC; C16 conjugate, chemical modifications, chemistry not fully specified)", "values": [{"measurement": "N-acetylaspartate (NAA) levels", "setting": "[1]", "value": "little effect"}, {"measurement": "glutamate (Glu) levels", "setting": "[1]; vs WT", "value": "normalization; also recorded: normalized"}, {"measurement": "reduction of Iba1 mRNA expression", "setting": "[2]; after 6 months", "value": "20-30%"}, {"measurement": "IBA1 IHC intensity", "setting": "[2]; cortex and hippocampus, rate of increase over time", "value": "significantly slower rate of increase"}, {"measurement": "reduction of AB40 deposits", "setting": "[3]", "value": "approximately 50%"}, {"measurement": "rearing frequency", "setting": "[4]", "value": "normalization; also recorded: normalized"}, {"measurement": "total distance traveled", "setting": "[4]", "value": "normalization; also recorded: normalized"}, {"measurement": "reduction of sAPPα protein", "setting": "[5]", "value": 50, "unit": "%"}, {"measurement": "reduction of APP mRNA in the cortex", "setting": "[6]; after 3 months", "value": "approximately 25%"}, {"measurement": "reduction of APP mRNA", "setting": "[6]; single 60 μg ICV, ventral cortex (VC)", "value": 50, "unit": "%"}, {"measurement": "reduction of APP mRNA", "setting": "[6]; single 120 μg ICV, 30 days post-dose, VC", "value": "~75", "unit": "%"}, {"measurement": "reduction of APP mRNA", "setting": "[6]; single 120 μg ICV, 60 days post-dose, VC", "value": "> 50", "unit": "%"}, {"measurement": "APP mRNA level", "setting": "[6]; single 120 μg ICV, 90 days, VC", "value": "normalizing"}]}]}
